Measurements as given in patent US12016834B2, “Small molecule inhibitors of SLC25A1” (GEORGETOWN UNIVERSITY, priority 2017, dated 2024).

How the values were obtained:
[1] = system: H1299 cells; test: Proliferation / viability in monolayer (2D) cultures; type: cell-based, human; conditions: for anti-proliferative activity in 2D cultures: Rotenone 10 nM, Oligomycin 1 mM, metformin 3 mM (FIG. 3I)
Procedure: (§1) Cellular proliferation and cytotoxicity assays. The proliferative capacity of cells was assessed by plating cells in triplicate at a concentration of 2,000 to 10,000 cells/well in 96 well plates in triplicate, with or without drug treatment for 48 hours. The cells were then washed with 1×PBS and fixed with cold 100% methanol at−20° C. for 20 minutes. Methanol was washed off and the cells were stained with 0.5% crystal violet dissolved in 25% methanol and water at 4° C. for 20 minutes. The staining was washed off using deionized (DI) water and the plate was dried overnight. On the second day, 100 mM sodium citrate in 50% ethanol and 50% water was added to the wells and absorbance at 550 nm was measured and corrected with readings at 405 nm. In other experiments, cell viability was assessed by trypan blue exclusion and visual count of the live cells was performed.

[2] = system: H1299 cells; test: Sphere forming / self-renewal assay; type: cell-based, human; conditions: for self-renewal: single-cell derived spheres, Rotenone 10 nM, Oligomycin 1 mM, metformin 3 mM (FIG. 3I)
Procedure: Growth of monolayers and sphere cultures. Tumor cell lines were grown as monolayers in complete Dulbecco's Modified Eagle's Media (DMEM, Gibco; supplemented with 10% fetal bovine serum and 1% of 5,000 units/mL of penicillin-streptomycin (pen-strep), Gibco). To generate spheroids, cells were grown in Falcon bacteriological petri dishes coated with 2% poly(2-hydroxyethyl methacrylate) dissolved in 100% ethanol. The growth media was DMEM/F12 (Gibco) supplemented with 20 ng/mL of epidermal growth factor (EGF), 5 ng/mL of fibroblast growth factor, 0.375% 100× N2 supplements (Gibco), and 1% pen-strep. Monolayer cells were dissociated using 0.25% trypsin-edta (Gibco), whereas spheroid cultures were dissociated using StemPro Accutase (Gibco). Patient derived cell lines were grown as described below in the primary lung cultures section.
Self-renewal assays. Tumor cells cultured as spheroids were dissociated and diluted in 2× sphere media containing 1% methyl cellulose, which was previously dissolved in cold DMEM/F12 media. Either 200, 500, or 1000 cells were then plated in each 96 well and were incubated in the presence or absence of drugs, as indicated. The spheres were allowed to form for a period of a week to ten days, at which point they were counted. Six biological replicates were used for quantification of the results.

[3] = target: SLC25A1 (Homo sapiens, UniProt P53007); test: Surface plasmon resonance (SPR) binding to recombinant purified SLC25A1; conditions: steady state, 1:1 binding model; human protein
Procedure: Surface Plasmon Resonance (SPR). SPR experiments were performed on a Biacore 4000 instrument at room temperature. The NTA sensorchip surface was activated by injecting 0.5 mM NiCl2 for 1 minute. Histidine-tagged recombinant purified SLC25A1 protein (0.07 mg/ml stock concentration) was used as the ligand to capture on the sensor surface. SLC25A1 was dissolved (1:50 dilution) in PBS-P (20 mM phosphate buffer (pH 7.4), 2.7 mM KCl, 137 mM NaCl and 0.05% surfactant P20) buffer and captured onto spots 2 and 4. SLC25A1 was captured to a level of ˜3000. PBS-P was used as the capture running buffer. Small molecules were used as analytes to flow over the ligand immobilized surface. Spot 3 of all flow cells were used as reference. The calculated theoretical Rmax was ˜30 RU based on a 1:1 interaction. The kinetics experiments were performed in the presence of HBS-P (10 mM HEPES (pH7.4), 150 mM NaCl, and 0.05% surfactant P20). The flow rate of all the solutions was maintained at 30 μL/min. The analyte concentrations were 0 μM, […], 6.25 μM, 12.5 μM, 25 μM, 50 μM, and 100 μM. Analyte concentrations showing signs of aggregation were excluded from the analysis. Data were analyzed by Biacore BiaEvaluation software for 1:1 steady state binding model.

[4] = system: MP1 cells; test: Apoptosis by annexin V and PI flow cytometry; type: cell-based, human; conditions: drug alone
Procedure: Flow cytometry. Tumor cells were trypsinized and washed in 1×PBS. The cells were then stained with the antibodies of choice: CD166-PE (Biolegend), CD133-647 (Biolegend), or CD44 (Biolegend), in 1% BAS-PBS. The cell cycles of monolayers or spheres of the cells were analyzed by fixing the cells in cold 75% ethanol. The annexin V (Biolegend) and propidium iodide (Biolegend) experiments were carried out.

[5] = system: MP1 cells; test: Tumor xenograft in immuno-compromised mice; type: in vivo
Procedure: Mice and treatments. To produce tumor xenografts, 5×10^6 cells derived from either monolayer cultures or GMSC expanded spheres were dissociated with Accutase, resuspended in PBS, and injected subcutaneously in the flanks of female balb athymic mice. Once detectable tumors started to form, their sizes were measured with a caliper in three dimensions and mice were randomized in the different treatment groups. […] Cisplatin was administered at 26 mg/kg every three or four days. AZD9291 was administered at 25/mg/Kg every 3 days. Serial measurements were made every day after the identification of the initial tumor mass to determine growth curves in vivo. Tumor volume was calculated using the formula for a prolate spheroid: volume=[…], where a is the width and b is the length. All animals were sacrificed when the tumors exceeded 1.5 cm. At the completion of experiments, tumors were excised, weighed, and the statistical significances of differences in tumor volume were assessed. Animals were monitored once a week for the presence of signs of disease, particularly neurological disturbances or weight loss, and they were weighed periodically.
Statistics. For the animal studies, power calculations for each treatment group were first determined. The number of animals was calculated to detect a 50% difference at alpha=0.05 and power=0.8. Statistical significance was assessed using both unpaired, two-tailed Student t test, and analysis of variance (ANOVA). Significant differences are indicated using the standard […] scale (P<0.05, significant; P<0.01, highly significant; P<0.001, extremely significant).

[6] = system: MP1 cells; test: Viability (Crystal Violet) and drug interaction (R index); type: cell-based, human; conditions: single drug, 5 days, monolayer
Procedure: as §1, with “The proliferative capacity of cells was assessed by plating cells in triplicate at a concentration of 2,000 to 10,000 cells/well in 96 well plates in triplicate, with or without drug treatment for 48 hours.” left out
(§2) Statistical methods for drug interactions. […] Sexp/Sobs=1.0 denotes an additive interaction, while >1.0 denotes a synergistic interaction. R index values approaching 2.0 are indicative of strong synergy.

[7] = system: MP2 cells; test: as above; type: cell-based, human; conditions: single drug, 5 days, monolayer
Procedure: as §1, with “The proliferative capacity of cells was assessed by plating cells in triplicate at a concentration of 2,000 to 10,000 cells/well in 96 well plates in triplicate, with or without drug treatment for 48 hours.” left out
as §2

[8] = system: MP1 cells; test: Seahorse OCR and ATP in patient-derived cells; type: cell-based, human; conditions: monolayer, chronic treatment for several passages (FIG. 6A)
Procedure: Primary lung cancer cultures and GMSC. Surgical samples were minced and digested with dispase (50 U/ml) in DMEM media containing 5% serum for 1 hour. Pleural effusions were centrifuged, washed once in PBS, and then plated. All primary cultures were initially grown on 6-well plates pre-coated with 2% Geltrex (Life Technologies; Carlsbad, CA) and 1% Maxgel (Sigma Aldrich). Maxgel is a humanized matrix, native and non-denatured. The inclusion of Maxgel in the system enhanced the initial attachment of primary tumor cells, partially because Maxgel provides a more natural ECM conformational substrate. The day after plating, the media containing unattached cells was typically transferred to a fresh plate, in most of cases generating new attached cultures. The media (Stem Cell Media) is the DMEM/F12 (Thermo-Fisher #11320-033 basic media) supplemented with the following components: Insulin-Transferrin-Sodium selenite (ITS; 1:1000; Sigma #11884); glutamine (Thermo-Fisher) to 4 mM final concentration; sodium pyruvate (Thermo-Fisher) to 2 mM final concentration; rock inhibitor (Y-27632) 10 micrograms/mL; 2-5% Knock Out Serum Replacement (KNOSR, Thermo-Fisher #10828-028); 0.5% ALBUMAX-(Lipid enriched BSA; Thermo-Fisher #11020-021); N2 Supplement (Thermo-Fisher) 1:250; EGF (5 ng/ml; Peprotech); hFGF (20 ng/ml; Bechman); and IGF-1 (Peprotech; 10-20 ng/ml).
(§3) Seahorse extracellular flux analyzer experiments. Cells derived from spheres or monolayer cultures were dissociated and plated overnight at 12,000 cells/well in DMEM with 10% FBS, 5 mM glucose, 1 mM pyruvate, 2 mM glutamine.
(§4) For the mitochondrial stress test, the media was replaced with DMEM without FBS or bicarbonate, containing 5 mM glucose, 1 mM pyruvate, 2 mM glutamine and placed in a CO2 free incubator at 37° C. for 1 hour, and then transferred to the Xf96 extracellular flux analyzer (Agilent; Santa Clara, CA). The program consisted of 3 measurements of OCR/ECAR before the injection of each drug: oligomycin (0.5 μM final concentration), FCCP (2 μM) and rotenone/antimycin (0.5 μM of each). For the glycolysis stress test, cells were plated overnight as above, and the media was washed twice the following day with DMEM without FBS, bicarbonate, glucose, glutamine or pyruvate, and incubated in this media in a CO2 free incubator with/without drug treatments at 37° C. for 4 hours. There were 3 measurements of OCR/ECAR before each injection: glucose (10 mM final concentration), oligomycin (0.5 […] (50 mM). For the analysis of glutamine oxidation, the protocol was the same as the glucose stress test, but with glutamine being the only compound injected (final concentration 4 mM) and OCR/ECAR measured for 60 minutes. When spheres were analyzed, they were dissociated with StemPro® Accutase® (Thermo Scientific; Waltham, MA) and plated under the same conditions as above as for the monolayers the day before the assay (H1299 spheres), or in stem cell media (See Stem Cell Media) with the wells coated in 15 μL of 2% geltrex diluted in DMEM:F12 (Thermo Scientific). The results were normalized to cell number.

[9] = system: H1299 cells; test: Glycolysis: ECAR (Seahorse) and lactic acid levels; type: cell-based, human; conditions: sphere-grown CSCs (FIG. 11C)
Procedure: Cells, reagents, antibodies, primers. The H1299 cell lines and other cell lines employed in this study were obtained from ATCC or from the tissue culture core facility at LCCC. Cells were grown in Dulbecco's Modified Eagle's Medium (DMEM, 25 mM glucose, with glutamine and pyruvate from Invitrogen; Carlsbad, CA) and supplemented with 10% fetal calf serum (FCS). […] The SLC25A1 specific shRNA vectors were purchased from Sigma. The vector expressing human SLC25A1 untagged or Flag-Myc epitope tagged were from Origene; Rockville, MD (#SC120727 and RC200657, respectively). The anti-SLC25A1 antibody used in immuno-blot was from Santa Cruz Biotech, #sc-86392 employed at 1:1000 dilution. Citrate, lactate, and PFK measurements were performed by using commercially available kits (Biovision (Milpitas, CA)).
as §3, §4

SLC25A1, sequence (P53007 14-311): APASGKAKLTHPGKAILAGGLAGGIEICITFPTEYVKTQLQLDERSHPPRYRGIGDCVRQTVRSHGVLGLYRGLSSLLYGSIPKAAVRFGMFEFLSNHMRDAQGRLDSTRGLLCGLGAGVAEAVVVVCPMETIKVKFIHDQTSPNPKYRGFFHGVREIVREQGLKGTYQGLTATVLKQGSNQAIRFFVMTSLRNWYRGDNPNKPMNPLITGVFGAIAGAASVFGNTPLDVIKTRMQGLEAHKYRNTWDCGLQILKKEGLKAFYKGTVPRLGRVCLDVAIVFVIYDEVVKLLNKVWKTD

## O=C(O)CCCCC(CCSCc1ccccc1)SCc1ccccc1 (stereo not shown) [CPI-613]
[1]; monolayer or methylcellulose single cells (FIG. 3J)
  anti-proliferative activity, ranges of concentrations: anti-proliferative activity at comparable ranges of concentrations
[2]; sphere forming assay compared with monolayer
  activity in spheres versus 2D/monolayer cultures: more effective in sphere forming assays than in monolayer cultures

## O=C(O)c1ccc(Cl)c(S(=O)(=O)Nc2cccc([N+](=O)[O-])c2)c1 [CTPI-1]
[3]
  Kd: 63.6 µM
[2]; human cells (FIGS. 2A and 2E)
  growth inhibitory activity, range of concentrations: millimolar range of concentrations
[2]; one week after treatment, BTA 2 mM, CTPI 1 mM (FIG. 9F)
  sphere forming capacity: reduced sphere forming capacity

## N.N.[Cl][Pt][Cl] [cisplatin, reference compound]
[4]
  apoptosis: did not induce apoptosis
[5]; GMSC-derived tumors (FIG. 7F)
  stem cell markers in tumors (immuno-blot): enhanced
[5]; cisplatin 3 mg/Kg every three days (FIG. 7D)
  tumor growth, cisplatin alone: inhibition of tumor growth but this effect was lost over time
[5]; cisplatin alone
  time until most tumors restarted to grow: two
[6]
  response to drug (viability): minimal response
[7]
  response to drug (viability): minimal response
[8]
  mitochondrial respiration after chronic drug treatment: dramatic shift towards mitochondrial respiration

## CN(C)C(=N)N=C(N)N [metformin]
[1]
  anti-proliferative activity in 2D cultures: no anti-proliferative activity
[2]
  self-renewal: significantly reduced self-renewal
[9]
  glycolytic rates: enhanced glycolytic rates

## CC[C@H]1/C=C/C=C/C[C@@H](C)[C@H](O)[C@@](C)(O)C(=O)[C@@H](C)[C@H](O)[C@@H](C)C(=O)[C@@H](C)[C@H](O)[C@@H](C)/C=C/C(=O)O[C@@H]2[C@H](C)[C@H](CC1)O[C@]1(CC[C@H](C)[C@H](C[C@@H](C)O)O1)[C@H]2C [oligomycyn, oligomycin]
[1]
  anti-proliferative activity in 2D cultures: no anti-proliferative activity
[2]
  self-renewal: significantly reduced self-renewal

## C=C(C)[C@H]1Cc2c(ccc3c2O[C@@H]2COc4cc(OC)c(OC)cc4[C@@H]2C3=O)O1 [rotenone]
[1]
  anti-proliferative activity in 2D cultures: no anti-proliferative activity
[2]
  self-renewal: significantly reduced self-renewal
